Like-named read-outs stand apart in the source and are kept apart here. Values belong to the compound of their own block, whether it stands above or below them.
What was measured:
[1] = Stability in perchloric acid extracts of nasal secretions over 24 hours at room temperature; type: physicochemical
From the text: (§1) Two characteristics make nasal secretions attractive for neurochemical analysis. The secretions are close to the site or origin of the compounds being measured and they are in a strong reducing environment. Oxidation potential measurements of saline suspensions of nasal secretions with platinum vs. Ag/Ag/cl yield values from -0.230 to -0.300 mV compared to lumbar CSF values of -0.050 to -0.170. The reducing character of the tissue is consistent with observation of a large number of easily oxidized peaks on the lower channels of the chromatographic pattern. The reducing character of the sample makes it highly attractive for clinical use because of the stability inferred for the target compounds. Indeed preliminary studies indicate no change in 5-hydroxyindoleacetic acid or homovanillic acid over 24 hours in perchloric acid extracts at room temperature. From the number of peaks in the 35-50 min region, the nasal mucosa also appear to be a stable matrix for small peptides, including fragments of β-amyloid peptide.
Swabs were extracted by cutting the tip and placing it in 300 μl of 0.1 M HClO4, they ere vortexed for 1 min. centrifuged and then reextracted in another 300 μl of 0.1 M HClO4. […] Following centrifugation the pellets are combined, and can be extracted with 40:60 acetonitrilehexane for analysis of ubiquinones and larger peptides.

[2] = Incubation of β-amyloid in saline suspensions of nasal mucosa, development of electroactive peaks; type: in vitro ADME; details: over 6 hours, FIG. 7
From the text: as §1

change over 24 hours (stability) [1]: no change
Compound: O=C(O)Cc1c[nH]c2ccc(O)cc12 [5-hydroxyindoleacetic acid]

Compound: COc1cc(CC(=O)O)ccc1O [homovanillic acid]
change over 24 hours (stability) ([1]; 24 hours, perchloric acid extracts, room temperature, preliminary studies): no change

Compound: β-amyloid
development of electroactive peaks [2]: development over 6 hours of electroactive peaks
electroactive peaks which corresponded to original peaks in the suspension [2]: five
